Source: ChEMBL document CHEMBL1128045, “Antifungal lipopeptides: Structure-activity relationships of 3-hydroxyglutamine-modified pneumocandin B0 derivatives” (Bioorg Med Chem Lett, 1995)
pIC50: −log10 of the molar value. In brackets after ≈: the same amount, converted by molar mass. Numbered stars: 1 amine (or outer) side, 2 acyl side, 3 side chain; on linkers, the order of the positions; unused ones are H or OH. Bridge positions count the residues as written; N and C are the ends. Square brackets hold non-standard residues; d marks the D form. Peptide text beside a SMILES is read from it. * marks the point of attachment. Orn(4R-OH,5R-OH) = O=C([C@H](C[C@@H](O)[C@@H](O)N[*:3])N[*:1])[*:2]; hTyr(3S-OH,4S-OH) = N[C@H](C(=O)O)[C@H](O)[C@@H](O)c1ccc(O)cc1; Orn(4R-OH) = O=C([C@H](C[C@@H](O)CN[*:3])N[*:1])[*:2]; X10 = N#CCN(CC#N)CC[C@@H](O)[C@H](N[*:1])C(=O)[*:2]; hTyr(3R-OH) = N[C@H](C(=O)O)[C@H](O)Cc1ccc(O)cc1; X12 = CC(=O)NCC[C@@H](O)[C@H](N[*:1])C(=O)[*:2]; X11 = COC(=O)C[C@@H](O)[C@H](N[*:1])C(=O)[*:2]; X2 = O=C(O)C[C@@H](O)[C@H](N[*:1])C(=O)[*:2]; X4 = N=C(S)C[C@@H](O)[C@H](N[*:1])C(=O)[*:2]; X7 = CN(C)CC[C@@H](O)[C@H](N[*:1])C(=O)[*:2]; Gln(3R-OH) = NC(=O)C[C@@H](O)[C@H](N)C(=O)O; Pro(3S-OH) = O=C(O)[C@H]1NCC[C@@H]1O; Hyp = O=C(O)[C@@H]1C[C@@H](O)CN1; X1 = CCC(C)CC(C)CCCCCCCCC(=O)*

What was measured:
[1] = target: Beta-1,3-glucan synthase (Candida albicans, UniProt O13428); assay: Tested for inhibition of Beta-1,3-glucan synthase using a crude membrane of Candida albicans (MY 1208).
Chain of Beta-1,3-glucan synthase (O13428 whole entry): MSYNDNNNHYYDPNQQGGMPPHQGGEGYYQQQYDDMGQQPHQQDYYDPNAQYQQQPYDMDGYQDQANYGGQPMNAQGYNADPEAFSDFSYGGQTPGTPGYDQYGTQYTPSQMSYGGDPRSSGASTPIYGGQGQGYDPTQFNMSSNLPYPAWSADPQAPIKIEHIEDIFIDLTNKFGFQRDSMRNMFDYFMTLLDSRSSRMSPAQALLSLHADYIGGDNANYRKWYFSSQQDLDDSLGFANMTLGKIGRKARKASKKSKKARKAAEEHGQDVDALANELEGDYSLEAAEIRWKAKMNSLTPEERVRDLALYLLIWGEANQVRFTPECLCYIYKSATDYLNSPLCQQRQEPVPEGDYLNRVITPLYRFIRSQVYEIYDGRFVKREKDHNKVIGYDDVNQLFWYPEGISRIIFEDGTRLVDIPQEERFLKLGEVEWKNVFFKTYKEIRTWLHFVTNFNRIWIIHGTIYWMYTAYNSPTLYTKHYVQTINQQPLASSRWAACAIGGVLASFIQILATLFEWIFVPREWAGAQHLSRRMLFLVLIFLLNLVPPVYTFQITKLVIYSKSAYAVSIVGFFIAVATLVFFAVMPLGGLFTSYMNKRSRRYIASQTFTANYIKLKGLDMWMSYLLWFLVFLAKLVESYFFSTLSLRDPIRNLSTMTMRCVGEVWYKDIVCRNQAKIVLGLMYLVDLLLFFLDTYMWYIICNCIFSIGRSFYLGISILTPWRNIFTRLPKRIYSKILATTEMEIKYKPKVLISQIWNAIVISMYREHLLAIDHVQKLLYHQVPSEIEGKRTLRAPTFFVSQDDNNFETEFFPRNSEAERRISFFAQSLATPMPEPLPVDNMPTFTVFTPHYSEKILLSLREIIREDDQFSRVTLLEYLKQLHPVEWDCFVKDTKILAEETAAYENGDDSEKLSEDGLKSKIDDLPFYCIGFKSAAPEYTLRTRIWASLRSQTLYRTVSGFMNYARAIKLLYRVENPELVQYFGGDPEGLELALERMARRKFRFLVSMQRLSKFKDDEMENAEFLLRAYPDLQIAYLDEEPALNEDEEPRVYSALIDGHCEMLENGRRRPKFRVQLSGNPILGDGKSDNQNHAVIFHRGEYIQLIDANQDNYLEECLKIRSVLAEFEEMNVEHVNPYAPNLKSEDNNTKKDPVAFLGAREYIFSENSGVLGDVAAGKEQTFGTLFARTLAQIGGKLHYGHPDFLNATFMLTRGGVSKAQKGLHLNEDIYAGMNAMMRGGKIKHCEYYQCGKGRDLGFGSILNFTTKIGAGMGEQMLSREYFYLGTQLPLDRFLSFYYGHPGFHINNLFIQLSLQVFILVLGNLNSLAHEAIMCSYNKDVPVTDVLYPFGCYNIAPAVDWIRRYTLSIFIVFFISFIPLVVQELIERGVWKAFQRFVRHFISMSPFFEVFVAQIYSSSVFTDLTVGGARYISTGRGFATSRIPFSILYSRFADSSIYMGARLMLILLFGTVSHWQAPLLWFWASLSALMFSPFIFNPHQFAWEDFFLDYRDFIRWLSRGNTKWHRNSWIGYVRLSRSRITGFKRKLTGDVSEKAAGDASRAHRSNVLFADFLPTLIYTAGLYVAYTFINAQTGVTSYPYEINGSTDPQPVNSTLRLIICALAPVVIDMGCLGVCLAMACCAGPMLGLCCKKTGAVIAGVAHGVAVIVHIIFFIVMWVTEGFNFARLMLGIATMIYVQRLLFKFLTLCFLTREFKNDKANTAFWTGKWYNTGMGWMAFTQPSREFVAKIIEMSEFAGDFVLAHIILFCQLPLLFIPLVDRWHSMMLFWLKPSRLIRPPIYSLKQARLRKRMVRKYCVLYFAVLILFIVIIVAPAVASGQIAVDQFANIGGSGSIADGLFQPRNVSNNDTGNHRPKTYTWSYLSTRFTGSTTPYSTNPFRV

[2] = tested on: Candida parapsilosis; assay: In vitro Fungicidal activity (MFC) against Candida parapsilosis (MY 1010).; type: functional; details: Lodderomyces parapsilosis
[3] = tested on: Candida albicans; assay: In vitro Fungicidal activity (MFC) against Candida albicans (MY 1055).; type: functional
[4] = In vivo anti-Candida activity was determined in a mouse model of disseminated candidiasis (TOKA).; type: functional

Structure (SMILES) | pIC50 [1] | MFC [2] [µg/mL] | MFC [3] [µg/mL] | ED99.9 [4] [mg/kg]
CCC(C)CC(C)CCCCCCCCC(=O)N[C@H]1C[C@@H](O)CNC(=O)[C@@H]2[C@@H](O)CCN2C(=O)[C@H]([C@H](O)CC(=N)S)NC(=O)[C@H]([C@H](O)Cc2ccc(O)cc2)NC(=O)[C@@H]2C[C@@H](O)CN2C(=O)[C@H]([C@@H](C)O)NC1=O (stereo partly drawn) (X1-[Orn(4R-OH)]T[Hyp][hTyr(3R-OH)][X4][Pro(3S-OH)]; lactam 1-C) | 6.92 | 4 (≈ 3.81 µM) | 0.25 (≈ 0.238 µM) | >6
CCC(C)CC(C)CCCCCCCCC(=O)N[C@H]1C[C@@H](O)CNC(=O)[C@@H]2[C@@H](O)CCN2C(=O)[C@H]([C@H](O)CC(=O)O)NC(=O)[C@H]([C@H](O)Cc2ccc(O)cc2)NC(=O)[C@@H]2C[C@@H](O)CN2C(=O)[C@H]([C@@H](C)O)NC1=O (stereo partly drawn) (X1-[Orn(4R-OH)]T[Hyp][hTyr(3R-OH)][X2][Pro(3S-OH)]; lactam 1-C) | 6.40 | 8 (≈ 7.74 µM) | 0.25 (≈ 0.242 µM) | >6
CCC(C)CC(C)CCCCCCCCC(=O)N[C@H]1C[C@@H](O)[C@@H](O)NC(=O)[C@@H]2[C@@H](O)CCN2C(=O)[C@H]([C@H](O)CCNC(C)=O)NC(=O)[C@H]([C@H](O)[C@@H](O)c2ccc(O)cc2)NC(=O)[C@@H]2C[C@@H](O)CN2C(=O)[C@H]([C@@H](C)O)NC1=O (stereo partly drawn) (X1-[Orn(4R-OH,5R-OH)]T[Hyp][hTyr(3S-OH,4S-OH)][X12][Pro(3S-OH)]; lactam 1-C) | 6.52 | 8 (≈ 7.32 µM) | 4 (≈ 3.66 µM) | 12
CCC(C)CC(C)CCCCCCCCC(=O)N[C@H]1C[C@@H](O)[C@@H](O)NC(=O)[C@@H]2[C@@H](O)CCN2C(=O)[C@H]([C@H](O)CCN(CC#N)CC#N)NC(=O)[C@H]([C@H](O)[C@@H](O)c2ccc(O)cc2)NC(=O)[C@@H]2C[C@@H](O)CN2C(=O)[C@H]([C@@H](C)O)NC1=O (stereo partly drawn) (X1-[Orn(4R-OH,5R-OH)]T[Hyp][hTyr(3S-OH,4S-OH)][X10][Pro(3S-OH)]; lactam 1-C) | < 6.70 | 8 (≈ 7.08 µM) | 4 (≈ 3.54 µM) | >1.5
CCC(C)CC(C)CCCCCCCCC(=O)N[C@H]1C[C@@H](O)CNC(=O)[C@@H]2[C@@H](O)CCN2C(=O)[C@H]([C@H](O)CC(=O)OC)NC(=O)[C@H]([C@H](O)Cc2ccc(O)cc2)NC(=O)[C@@H]2C[C@@H](O)CN2C(=O)[C@H]([C@@H](C)O)NC1=O (stereo partly drawn) (X1-[Orn(4R-OH)]T[Hyp][hTyr(3R-OH)][X11][Pro(3S-OH)]; lactam 1-C) | 6.74 | 4 (≈ 3.82 µM) | 0.5 (≈ 0.477 µM) | >6
CCC(C)CC(C)CCCCCCCCC(=O)N[C@H]1C[C@@H](O)[C@@H](O)NC(=O)[C@@H]2[C@@H](O)CCN2C(=O)[C@H]([C@H](O)CCN(C)C)NC(=O)[C@H]([C@H](O)[C@@H](O)c2ccc(O)cc2)NC(=O)[C@@H]2C[C@@H](O)CN2C(=O)[C@H]([C@@H](C)O)NC1=O (stereo partly drawn) (X1-[Orn(4R-OH,5R-OH)]T[Hyp][hTyr(3S-OH,4S-OH)][X7][Pro(3S-OH)]; lactam 1-C) | 8.30 | 2 (≈ 1.85 µM) | 1 (≈ 0.927 µM) | 1.5
CCC(C)CC(C)CCCCCCCCC(=O)N[C@H]1C[C@@H](O)CNC(=O)[C@@H]2[C@@H](O)CCN2C(=O)[C@H]([C@H](O)CC(N)=O)NC(=O)[C@H]([C@H](O)Cc2ccc(O)cc2)NC(=O)[C@@H]2C[C@@H](O)CN2C(=O)[C@H]([C@@H](C)O)NC1=O (stereo partly drawn) (X1-[Orn(4R-OH)]T[Hyp][hTyr(3R-OH)][Gln(3R-OH)][Pro(3S-OH)]; lactam 1-C) | 7.15 | 2 (≈ 1.94 µM) | 0.25 (≈ 0.242 µM) | >6
